Among the data in article PMC7952708, “In silico method for selecting residue pairs for single-molecule microscopy and spectroscopy” (Scientific Reports, 2021) are Kd values, retold here.

Common to all, as to assay: solution-based ALEX single-molecule FRET titration
In test [1] the target is T1, OpuAC (substrate-binding domain of OpuA) (Lactococcus lactis, UniProt Q7DAU8, K521C/T504C).
T1 construct: gene busAB
T1 sequence (Q7DAU8 320-573 T504C/K521C): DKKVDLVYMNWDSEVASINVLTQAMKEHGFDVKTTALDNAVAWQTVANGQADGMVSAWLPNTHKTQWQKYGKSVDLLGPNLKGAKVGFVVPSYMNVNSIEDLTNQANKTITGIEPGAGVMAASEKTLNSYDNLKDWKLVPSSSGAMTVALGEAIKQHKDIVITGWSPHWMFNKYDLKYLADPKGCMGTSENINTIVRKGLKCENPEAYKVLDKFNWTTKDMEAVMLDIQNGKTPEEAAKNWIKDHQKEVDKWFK

Test [2] has as its target T2, OpuAC (substrate-binding domain of OpuA) (Lactococcus lactis, UniProt Q7DAU8, K566C/N414C).
T2 construct: gene busAB
T2 sequence (Q7DAU8 320-573 N414C/K566C): T1 sequence (Q7DAU8 320-573 T504C/K521C) with N95C, C185T, C202K, K247C

Test [3] concerns the target T3, OpuAC (substrate-binding domain of OpuA) (Lactococcus lactis, UniProt Q7DAU8, D320C/K453C).
T3 construct: gene busAB
T3 sequence (Q7DAU8 320-573 D320C/K453C): T1 sequence (Q7DAU8 320-573 T504C/K521C) with D1C, K134C, C185T, C202K

The structures appear in SMILES notation. Substitutions are numbered along the chain they refer to.

Turning to `C[N+](C)(C)CC(=O)[O-]` [glycine betaine], the Kd is 38 µM in test [1], 1 to 4 µM in test [2] and 1 to 4 µM in test [3].

What is called Kd is a measure of binding affinity in units of concentration. Read a high Kd as lower affinity.
